Experimental data published in patent US7960606B2, “Mouse model of chronic heart failure and coronary atherosclerosis regression” (The J. David Gladstone Institutes, priority 2006, dated 2011).

Key:
[1] = test system: Apoe^h/hSRB1^−/−Mx1-Cre mice; test: Survival of diet-induced heart attacks in Apoe^h/hSRB1^−/−Mx1-Cre mice after pI-pC injection and switch to low fat diet; format: in vivo
Source text: The animal model was created by breeding Apoe^h/hSRB1^−/− mice to mice that carry the inducible Mx1-Cre transgene, resulting in Apoe^h/hSRB1^−/−Mx1-Cre mice that are sensitive to diet-induced coronary atherosclerosis and develop fatal myocardial infarctions within 35 days of dietary challenge. However, this new strain of mice can survive its heart attacks if switched to a normal low fat diet and given a single intrapentoneal injection of polyinosinic polycytidylic ribonucleic acid (pI-pC). […] Surviving Apoe^h/hSRB1^−/−MX1-Cre mice can then live for many months. Upon histological analysis of their heart, there is evidence of myocardial infarction and ventricular enlargement. Consequently, the surviving Apoe^h/hSRB1^−/−Mx1-Cre mice are a unique murine model of chronic heart failure that simulates chronic heart failure in humans who survive heart attacks caused by coronary atherosclerosis.
10 Apoe^h/hSRB1^−/−Mx1-Cre mice were fed a high cholesterol diet for 30 days. On day 31, they were injected with pI-pC, and then switched to a low fat diet. Of the 10 mice, 6 survived for two months. At that time point, their hearts were harvested and heart function was assessed in 4 of the 6 mice by Langendorf hemodynamic measurements.

SR-BI knockout females = details: administered during the breeding protocol; Miettinen et al. 2001; cited from earlier work

Compound | mice surviving for two months (of 10) ([1]; high cholesterol diet for 30 days, pI-pC injected on day 31, then low fat diet, 10 mice) | blood cholesterol levels ([1]; single intraperitoneal injection, activates Mx1-Cre gene, restores normal Arg-61 apoE levels in blood) | fertility in the SR-BI knockout females (SR-BI knockout females)
polyinosinic polycytidylic ribonucleic acid [pI-pC] | 6 | rapidly and permanently lowers blood cholesterol levels in a few days | 
CC(C)(Sc1cc(C(C)(C)C)c(O)c(C(C)(C)C)c1)Sc1cc(C(C)(C)C)c(O)c(C(C)(C)C)c1 [probucol] |  |  | restore fertility
